US20250122193A1, “NOVEL PYRIDOCARBAZOLIUM COMPOUNDS AND MEDICAL USES THEREOF” (MyCural Therapeutics, priority 2021, published 2025)

Legend:
[1] = tested on: normal human peripheral blood lymphocytes; test: apoptosis assay (Cell Death Detection ELISA), peripheral blood lymphocytes; type: cell-based; settings: 5 μM, 24 and 48 hours
Method: (§1) FIG. 4: MYCMI-7 induces apoptosis in malignant cells and growth arrest in normal cells. A) Cell cycle distribution analysis by flow cytometry of MYC-regulated P493-6 cells and normal rat embryo fibroblasts (REFs). Left panel, P493-6 synchronized in G0 by 24 hours treatment of […] doxycycline. Doxycycline was removed and the cells were harvested 48 hours after the addition of fresh medium containing DMSO or 5 μM MYCMI-7. Right panel, flow cytometry analysis of normal REFs treated with DMSO or 5 μM MYCMI-7. B) Apoptosis assay using the Cell Death Detection ELISA^plus kit. Left panel, immortalized Rat1 fibroblasts with different MYC status after 24 hours of 5 μM MYCMI-7 treatment, middle panel and right panels, normal REFs and normal peripheral blood lymphocytes, respectively, after 24 and 48 hours of 5 μM MYCMI-7 treatment. C) Measurement of viability and apoptosis by Apo-Tox Glo Triplex assay in A375 melanoma cells after 3 days of treatment with MYCMI-7 with the indicated concentrations. […] E) NHDFs treated with 3 μM MYCMI-7 for 72 hrs. Viability was measured by trypan blue exclusion assay. F) Cell growth measured with Cyt62 assay of primary normal human epidermal melanocytes (NHEM) treated for 72 hours with MYCMI-7, G) Viability measured by trypan blue exclusion assay of NHEM after treatment for 72 hours with MYCMI-7.

[2] = tested on: p53 expression; test: p53 expression by western blot; type: cell-based; settings: 5 μM, HCT116 and Kelly cells
Method: A) Measurement of MYC mRNA expression by RTqPCR after treatment with MYCMI-7 and different topoisomerase inhibitors at indicated concentrations. […] D) Western blot analysis of p53 and p21 expression after exposure to 5 μM MYCMI-7, ellipticine or camptothecin (CPT) in HCT116 cells. E) Western blot analysis of phospho-ATM, total ATM and p53 expression after exposure to indicated concentrations of MYCMI-7 and ellipticine in A375 cells after 3 hrs treatment.
For western blot equal amounts of proteins ([…]) were separated on a 4-12% SDS-PAGE gel. Proteins were transferred to Immobilion-P membrane (Millipore) and detected by immunostaining and chemoluminescence (Immobilion western HRP substrate; Millipore). For immunoprecipitations 500-1000 μg of protein was used. […] Briefly, cells were crosslinked with 1% formaldehyde on ice for 6 minutes. Nuclear chromatin was sonicated on ice to fragments from 0.3 kb to 0.5 kb. Nuclear chromatin equivalent to 2.5×10^7 cells was immunoprecipitated with 2 μg antibody.

[3] = tested on: normal rat embryo fibroblasts (REFs); test: cell cycle distribution by flow cytometry, normal REFs; type: cell-based; settings: 5 μM
Method: FIG. 4: MYCMI-7 induces apoptosis in malignant cells and growth arrest in normal cells. A) Cell cycle distribution analysis by flow cytometry of MYC-regulated P493-6 cells and normal rat embryo fibroblasts (REFs). Left panel, P493-6 synchronized in G0 by 24 hours treatment of […] doxycycline. Doxycycline was removed and the cells were harvested 48 hours after the addition of fresh medium containing DMSO or 5 μM MYCMI-7. Right panel, flow cytometry analysis of normal REFs treated with DMSO or 5 μM MYCMI-7. B) Apoptosis assay using the Cell Death Detection ELISA^plus kit. Left panel, immortalized Rat1 fibroblasts with different MYC status after 24 hours of 5 μM MYCMI-7 treatment, middle panel and right panels, normal REFs and normal peripheral blood lymphocytes, respectively, after 24 and 48 hours of 5 μM MYCMI-7 treatment. […] Viability was measured by trypan blue exclusion assay. F) Cell growth measured with Cyt62 assay of primary normal human epidermal melanocytes (NHEM) treated for 72 hours with MYCMI-7, G) Viability measured by trypan blue exclusion assay of NHEM after treatment for 72 hours with MYCMI-7.
Flow cytometry: P493-6 cells were synchronized using 1 μg/ml doxycycline. […] Cells were stained with propidium iodide (Sigma) and 1×10^4 cells per treatment were analyzed using a FACScan and CellQuestPro (Becton Dickinson). […]

[4] = molecular target: T1, endogenous MYC:MAX interaction (Homo sapiens, UniProt P01106); test: in situ proximity ligation assay (isPLA), MYC:MAX; type: cell-based; settings: 5 μM, 24 hours, MCF-7 cells
T1 construct: endogenous in cells; host or cells: MCF7
Method: FIG. 1: MYCMI-7 (Compound Example 1) inhibits the MYC:MAX interaction in cells, bind MYC in vitro, and blocks MYC function. A) Molecular structure of MYCMI-7. B-E) split Gaussia luciferase (GLuc) assay. MYC or MYCN and MAX Gluc constructs were co-transfected into HeLa cells together with a firefly luciferase vector. 24 hours post transfection cells were treated with compounds, and after another 17-24 hours cells were harvested and both GLuc and firefly luciferase activities were measured. The mean of three different experiments is shown. […] G) Quantification of isPLA dots. […] J) MYC target gene ODC1 expression after treatment with 5 μM MYCMI-7, quantified by qPCR. […] L) Recombinant MYC bHLHZip protein domain immobilized onto a CM5 chip was subjected to various concentrations of MYCMI-7 and the complex of MYCbHLHZip-MYCMI-7 was measured as response units by SPR. […]
Briefly, cells were grown on collagen-coated chamber slides (Falcon), treated with compounds and then washed twice with PBS and fixed in ice cold methanol for 5-15 min at room temperature. […] Images were taken using an Axiovert 200M inverted microscope (Zeiss) and fluorescent dots were quantified using semi-automated analysis in ImageJ (http://imagej.net) and averaged to number of dots per cell. […]

[5] = tested on: MYC+RAS-transformed rat embryonic fibroblasts; test: MYC+RAS transformation of REFs (foci, colonies in semi-solid medium); type: cell-based
Method: For anchorage-independent growth assay, cells were suspended in 250 μl 0.35% SeaPlaque agarose (InVitro) and seeded into 24 well plates which had previously been coated with a bottom layer of 250 μl 0.7% agarose. After 16 days, the colonies were stained with 100 μg/ml MTT (Sigma) overnight and colonies were counted. For foci formation assays, 3×10^4 REFs were seeded into 6 well plates. The following day the cells were transfected with the indicated plasmids (0.3 μg of each, a total of 0.6 μg per well). After another 24 hours compounds were added. The medium was changed every 2-3 days. When the cells had grown into confluency, medium containing 4% serum was added. After 14 days the number of foci was scored.

[6] = tested on: immortalized Rat1 fibroblasts with different MYC status; test: apoptosis assay (Cell Death Detection ELISA), Rat1 fibroblasts; type: cell-based, rat; settings: 24 hours
Method: as §1

[7] = in vivo; settings: mouse, plasma, ip, 6.25 mg/kg
Method: Blood and brains were collected from three to four mice per group at 0, 1, 2, 4 and 24 hours following injection of 6.25 mg/kg ToM. Plasma samples were extracted using protein precipitation. Brain samples were extracted by homogenization in acetonitrile:DMSO, 95:5 using a gentleMACS Dissociater and gentleMACS™ M Tubes. The protein in the mouse plasma samples was removed by protein precipitation with acetonitrile containing the internal standard. After protein precipitation the study samples were centrifuged, and the resulting supernatant was analyzed. The acetonitrile:DMSO from the brain sample homogenates were spiked with the internal standard and then analyzed. All samples were analyzed by first separating them by reversed phase gradient LC and subsequently detecting them using positive electrospray ionization and multiple reaction monitoring (MRM).
First, we performed a pharmacokinetic study of the behavior of the molecule in mice.

T1 sequence (P01106 16-454): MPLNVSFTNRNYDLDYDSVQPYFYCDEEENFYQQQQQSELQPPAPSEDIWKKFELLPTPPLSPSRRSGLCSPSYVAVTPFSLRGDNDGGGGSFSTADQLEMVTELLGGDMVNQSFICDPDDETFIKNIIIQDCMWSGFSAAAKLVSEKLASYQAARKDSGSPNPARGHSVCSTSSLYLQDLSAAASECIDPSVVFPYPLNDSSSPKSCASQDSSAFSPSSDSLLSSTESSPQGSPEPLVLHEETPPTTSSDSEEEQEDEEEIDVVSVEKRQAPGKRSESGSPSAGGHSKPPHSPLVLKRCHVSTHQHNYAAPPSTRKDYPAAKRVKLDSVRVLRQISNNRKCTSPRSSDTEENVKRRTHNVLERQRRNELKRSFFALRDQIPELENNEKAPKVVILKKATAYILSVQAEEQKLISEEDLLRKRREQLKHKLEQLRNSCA

With CCN(CC)CC[n+]1ccc2c(C)c3[nH]c4ccccc4c3c(C)c2c1 [MYCMI-7, 2-(5,11-Dimethyl-6H-25-pyrido[4,3-b]carbazol-2-yl)-N,N-diethylethanamine bromide] the apoptosis [1] was “did not induce apoptosis”, the p53 expression ([2]; early (3 hrs)) was “no effect” and the p53 expression ([2]; late (24 hrs)) was “only a minor increase”. For the same compound, the cell cycle effect [3] was “induced G1 arrest”, the cell death [3] was “no increase in cell death” and the “inhibition of MYC:MAX interaction (isPLA)” value [4] was “strongly inhibited”. The “formation of transformed foci and colonies in semi-solid medium” value [5] was “strongly inhibited”, the apoptosis ([6]; MYC knockout HO15.19, 5 μM) was “not” and the apoptosis ([6]; TGR1 and HOMyc3, 5 μM) was “induced apoptosis”. It also gave a half-life [7] of 1.5 h.
